Laboratory results: US4552882A, “7-(1-Pyrrolyl) derivatives of 1-ethyl-1,4-dihydro-4-oxoquinoline-3-carboxylic acids and 1-ethyl-1,4-dihydro-4-oxo-1,8-naphthyridine-3-carboxylic acids and their use as antimicrobial agents” (Provesan, SA, priority 1983, dated 1985)
Values after ≈ are worked out from the molar mass of the structure shown.

What was measured:
[1] = tested on: Citrobacter freundii ATCC 11606; test: MIC in vitro; type: cell-based; details: ATCC11606, Dextrose agar, 37° C., 20 hours
Method: (§1) (G. L. Daquet and Y. A. Chabbect, Techniques en bacteriologie (Bacteriological techniques), vol. 3, Flammarion Medecine Sciences, Paris, 1972 and W. B. Hugo and A. D. Rusell, Pharmaceutical Microbiology, Blackwell Scientific Publications, London, (1977)). Antibiotic medium no. 1 (seed agar) (Oxoid CM 327) Tryptone-soya broth (Oxoid CM 129) Ringer's physiological solution 1/4 (oxoid BR 52) Dextrose agar (BBL-11165) 0.1 N NaOH "Citrobacter freundii" ATCC 11606 Each of the microorganisms is seeded by streaking in tubes of Antibiotic medium No. 1 (seed agar), which are then incubated at 37° C. for 20 hours. Using a culture loop, the cultures are then seeded in tryptone-soyabroth and incubated at 37° C. for 20 hours. The culture obtained is diluted to 1/4 with Ringer's physiological solution, so as to obtain a standardized suspension of 10^7 -10^9 cfu/ml for each organism. Starting from a solution of 1,000 μg/ml in 0.1 N NaOH, each product is diluted in Dextrose agar (previously melted and maintained at 50° C.), with successive dilutions so as to obtain the following concentrations: 64--32--16--8--4--2--1--0.5--0.25--0.125 μg of derivative/ml medium. For each product, the solution of each concentration is subsequently distributed into Petri dishes 10 cm in diameter, with 10 ml of medium per dish and the same number of dishes as microorganisms to be tested. As soon as the medium has cooled, the dishes are seeded with the inoculations using 0.4 ml of inoculation per dish. They are spread with a Driglasky loop and the supernatant is removed. The seeded dishes are incubated at 37° C. for 20 hours.

[2] = tested on: Enterobacter aerogenes ATCC 15038; test: MIC in vitro; type: cell-based; details: Klebsiella aerogenes, ATCC15038, Dextrose agar, 37° C., 20 hours
Description: as §1, with “"Enterobacter aerogenes"” for “"Citrobacter freundii"”, “15038” for “11606”

[3] = tested on: Salmonella typhimurius AMES 98; test: MIC in vitro; type: cell-based, Salmonella typhimurium; details: AMES98, Dextrose agar, 37° C., 20 hours
Method: (§2) (G. L. Daquet and Y. A. Chabbect, Techniques en bacteriologie (Bacteriological techniques), vol. 3, Flammarion Medecine Sciences, Paris, 1972 and W. B. Hugo and A. D. Rusell, Pharmaceutical Microbiology, Blackwell Scientific Publications, London, (1977)).
(§3) Antibiotic medium no. 1 (seed agar) (Oxoid CM 327)
(§4) Tryptone-soya broth (Oxoid CM 129)
(§5) Ringer's physiological solution 1/4 (oxoid BR 52) Dextrose agar (BBL-11165) 0.1 N NaOH
"Salmonella typhimurium" AMES 98
(§6) Each of the microorganisms is seeded by streaking in tubes of Antibiotic medium No. 1 (seed agar), which are then incubated at 37° C. for 20 hours. Using a culture loop, the cultures are then seeded in tryptone-soyabroth and incubated at 37° C. for 20 hours. The culture obtained is diluted to 1/4 with Ringer's physiological solution, so as to obtain a standardized suspension of 10^7 -10^9 cfu/ml for each organism.
(§7) Starting from a solution of 1,000 μg/ml in 0.1 N NaOH, each product is diluted in Dextrose agar (previously melted and maintained at 50° C.), with successive dilutions so as to obtain the following concentrations: 64--32--16--8--4--2--1--0.5--0.25--0.125 μg of derivative/ml medium.
(§8) For each product, the solution of each concentration is subsequently distributed into Petri dishes 10 cm in diameter, with 10 ml of medium per dish and the same number of dishes as microorganisms to be tested.
(§9) As soon as the medium has cooled, the dishes are seeded with the inoculations using 0.4 ml of inoculation per dish. They are spread with a Driglasky loop and the supernatant is removed. The seeded dishes are incubated at 37° C. for 20 hours.

[4] = tested on: Salmonella typhimurius AMES 100; test: MIC in vitro; type: cell-based, Salmonella typhimurium; details: AMES100, Dextrose agar, 37° C., 20 hours
Method: as §2, §3, §4, §5
"Salmonella typhimurium" AMES 100
as §6, §7, §8, §9

Shigella flexnerii = test: MIC in vitro; type: cell-based; details: Dextrose agar, 37° C., 20 hours
Method: as §2, §3, §4, §5, §6, §7, §8, §9

[5] = tested on: enterobacteriaceae (Pseudomonas aeruginosa); test: in vitro antimicrobial activity compared to pipemidic acid; type: cell-based
Method: as §2, §3, §4, §5, §6, §7, §8, §9

gram-positive cocci = test: as above; type: cell-based
Method: as §2, §3, §4, §5, §6, §7, §8, §9

[6] = tested on: gram-negative microorganisms; test: as above; type: cell-based
Method: as §2, §3, §4, §5, §6, §7, §8, §9

Question: Which results are given for `CCn1cc(C(=O)O)c(=O)c2cc(F)c(-n3cccc3)nc21` [Example 4, 1-ethyl-1,4-dihydro-4-oxo-6-fluoro-7-(1-pyrrolyl)-1,8-naphthyridine-3-carboxylic acid]?
Answer: MIC [1]: 4 µg/mL (≈ 13.3 µM); MIC [2]: 4 µg/mL (≈ 13.3 µM); MIC [3]: 0.12 µg/mL (≈ 0.398 µM); MIC [4]: 0.5 µg/mL (≈ 1.66 µM); MIC (Shigella flexnerii): 2 µg/mL (≈ 6.64 µM); "in vitro" activity compared to pipemidic acid [5]: greater than that of pipemidic acid; "in vitro" activity compared to pipemidic acid (gram-positive cocci): greater than that of pipemidic acid

Question: What does the source list for `CCn1cc(C(=O)O)c(=O)c2ccc(-n3cccc3)cc21` [Example 1, 7-(1-pyrrolyl)-1-ethyl-1,4-dihydro-4-oxo-3-quinolinecarboxylic acid]?
Answer: MIC [1]: 16 µg/mL (≈ 56.7 µM); MIC [2]: > 64 µg/mL; MIC [3]: 0.5 µg/mL (≈ 1.77 µM); MIC [4]: 4 µg/mL (≈ 14.2 µM); MIC (Shigella flexnerii): 8 µg/mL (≈ 28.3 µM); "in vitro" activity compared to pipemidic acid [5]: greater than that of pipemidic acid; "in vitro" activity compared to pipemidic acid (gram-positive cocci): greater than that of pipemidic acid

Question: What does the source list for `CCn1cc(C(=O)O)c(=O)c2cc(F)c(-n3cccc3)cc21` [Example 2, 6-fluoro-7-(1-pyrrolyl)-1-ethyl-1,4-dihydro-4-oxo-3-quinolinecarboxylic acid]?
Answer: MIC [1]: 8 µg/mL (≈ 26.6 µM); MIC [2]: 8 µg/mL (≈ 26.6 µM); MIC [3]: < 0.125 µg/mL; MIC [4]: 0.5 µg/mL (≈ 1.67 µM); MIC (Shigella flexnerii): 2 µg/mL (≈ 6.66 µM); "in vitro" activity compared to pipemidic acid [5]: greater than that of pipemidic acid; "in vitro" activity compared to pipemidic acid (gram-positive cocci): greater than that of pipemidic acid

Question: What does the source list for `CCn1cc(C(=O)O)c(=O)c2ccc(-n3cccc3)nc21` [Example 3, 1-ethyl-1,4-dihydro-4-oxo-7-(1-pyrrolyl)-1,8-naphthyridine-3-carboxylic acid]?
Answer: MIC [1]: 32 µg/mL (≈ 113 µM); MIC [2]: > 64 µg/mL; MIC [3]: 0.5 µg/mL (≈ 1.76 µM); MIC [4]: 8 µg/mL (≈ 28.2 µM); MIC (Shigella flexnerii): 16 µg/mL (≈ 56.5 µM); activity compared to pipemidic acid [6]: activity of the same order as that of pipemidic acid; "in vitro" activity compared to pipemidic acid (gram-positive cocci): a greater activity

Question: For `CCn1cc(C(=O)O)c(=O)c2cnc(N3CCNCC3)nc21` [Pipemidic acid, reference compound], which MIC [1] is on record?
Answer: The MIC was 4 µg/mL (≈ 13.2 µM).

Question: And the MIC [2]?
Answer: Its MIC is 32 µg/mL (≈ 105 µM).

Question: What about the MIC [3] of the same compound?
Answer: Its MIC is 4 µg/mL (≈ 13.2 µM).

Question: And the MIC [4]?
Answer: The MIC was 8 µg/mL (≈ 26.4 µM).

Question: What about the MIC (Shigella flexnerii) of the same compound?
Answer: The MIC was 4 µg/mL (≈ 13.2 µM).
